Source: patent publication US8513289B2, “P38 kinase inhibiting agents” (Merck Sharp & Dohme Corp., priority 2009, dated 2013)

Experiments:
hWB = experiment: IC50 hWB (TNF-α release assay); format: cell-based; conditions: Homo sapiens
p38-α = target: T1, p38-α (Homo sapiens, UniProt Q16539); experiment: p38 kinase assay, p38-α with peptide substrate (Caliper LabChip); format: biochemical; conditions: read-out: IC50 p38a*peptide
T1 construct: purchased Millipore
Description: Alternatively, p38 kinase assays were performed in a reaction volume of 70 µL in a 384-well plate, at 30° for […] under the following conditions: 50 mM Hepes, pH 7.4, 10 mM MgCl2, 1 mg/ml FA Free BSA, 1 mM DTT, 10 μM ATP, 10 μM p38 peptide [Caliper Life Sciences FL-Peptide 8 (5-FAM-IPTSPITTTYFFEKKK-COOH)] and 5.7 nM p38-α (Millipore), or 14.3 nM unactivated MAPKAP kinase-2, 0.18 nM p38-α (Millipore) and 2 uM RSK peptide [Caliper Life Sciences FL-Peptide 11 (5-FAM-KKLNRTLSVA-COOH)]. Serial dilutions of compounds were added to each reaction in 700 nL DMSO. 700 nL of DMSO was added to the control wells of the reaction plate as the no inhibitor control for each inhibitor titration. The reaction was terminated by the addition of 15 μL of a 100 mM EDTA. Product formation was analyzed using the Caliper LabChip 3000. The Separation buffer contained 100 mM HEPES pH 7.5, 0.015% Brij-35, 2.5% Coating Reagent #3 (Caliper Life Sciences) and 10 mM EDTA. Calculation of the substrate product ratios are performed using the HTS Well Analyzer software provided by Caliper Life Sciences and the percent inhibition at each compound concentration is determined.

T1 sequence (Q16539 whole entry): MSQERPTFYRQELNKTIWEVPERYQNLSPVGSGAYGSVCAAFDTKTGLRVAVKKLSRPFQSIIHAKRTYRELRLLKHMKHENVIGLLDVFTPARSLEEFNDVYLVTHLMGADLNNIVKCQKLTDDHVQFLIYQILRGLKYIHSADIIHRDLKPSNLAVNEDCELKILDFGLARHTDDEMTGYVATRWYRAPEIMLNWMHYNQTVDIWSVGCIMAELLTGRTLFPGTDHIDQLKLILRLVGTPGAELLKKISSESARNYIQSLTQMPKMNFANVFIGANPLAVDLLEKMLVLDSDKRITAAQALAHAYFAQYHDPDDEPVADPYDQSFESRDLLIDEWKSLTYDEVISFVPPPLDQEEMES

IC50 (hWB)	IC50 (p38-α)	SMILES
1270 nM	121 nM	O=C(NCc1nnc(-c2ccc[nH]2)s1)c1cc(C(=O)c2c(F)cc(F)cc2F)c[nH]1 [Example 14, N-{[5-(1H-pyrrol-2-yl)-1,3,4-thiadiazol-2-yl]methyl}-4-(2,4,6-trifluorobenzoyl)-1H-pyrrole-2-carboxamide]
4220 nM	441 nM	CCCCc1nnc(CNC(=O)c2cc(C(=O)c3c(F)cc(F)cc3F)c[nH]2)s1 [Example 2, N-[(5-butyl-1,3,4-thiadiazol-2-yl)-methyl]-4-(2,4,6-trifluorobenzoyl)-1-H-pyrrole-2-carboxamide]
2820 nM	78 nM	COc1ccc(-c2nnc(CNC(=O)c3cc(C(=O)c4c(F)cc(F)cc4F)c[nH]3)s2)cn1 [Example 17, N-{[5-(6-methoxypyridin-3-yl)-1,3,4-thiadiazol-2-yl]methyl}-4-(2,4,6-trifluorobenzoyl)-1H-pyrrole-2-carboxamide]
3270 nM	243 nM	Cc1cc(-c2nnc(CNC(=O)c3cc(Cc4c(F)cc(F)cc4F)c[nH]3)s2)[nH]n1 [Example 46, N-{[5-(3-methyl-1H-pyrazol-5-yl)-1,3,4-thiadiazol-2-yl]methyl}-4-(2,4,6-trifluorobenzyl)-1H-pyrrole-2-carboxamide]
1880 nM	259 nM	O=C(NCc1nnc(-c2ccc[nH]c2=O)s1)c1cc(Cc2c(F)cc(F)cc2F)c[nH]1 [Example 43, N-{[5-(2-oxo-1,2-dihydropyridin-3-yl)-1,3,4-thiadiazol-2-yl]methyl}-4-(2,4,6-trifluorobenzyl)-1H-pyrrole-2-carboxamide]
90 nM	10 nM	CC(C)c1cc(-c2nnc(CNC(=O)c3cc(C(=O)c4c(F)cc(F)cc4F)c[nH]3)s2)[nH]n1 [Example 25, N-{[5-(3-isopropyl-1H-pyrazol-5-yl)-1,3,4-thiadiazol-2-yl]methyl}-4-(2,4,6-trifluorobenzoyl)-1H-pyrrole-2-carboxamide]
1360 nM	354 nM	O=C(NCc1nnc(-c2ccn[nH]2)s1)c1cc(Cc2c(F)cc(F)cc2F)c[nH]1 [Example 45, N-{[5-(1H-pyrazol-5-yl)-1,3,4-thiadiazol-2-yl]methyl}-4-(2,4,6-trifluorobenzyl)-1H-pyrrole-2-carboxamide]
570 nM	66 nM	O=C(NCc1nnc(-c2ccccn2)s1)c1cc(C(=O)c2c(F)cc(F)cc2F)c[nH]1 [Example 12, N-[(5-pyridin-2-yl-1,3,4-thiadiazol-2-yl)methyl]-4-(2,4,6-trifluorobenzoyl)-1H-pyrrole-2-carboxamide]
815 nM	78 nM	O=C(NCc1nnc(-c2cnccn2)s1)c1cc(C(=O)c2c(F)cc(F)cc2F)c[nH]1 [Example 21, N-[(5-pyrazin-2-yl-1,3,4-thiadiazol-2-yl)methyl]-4-(2,4,6-trifluorobenzoyl)-1H-pyrrole-2-carboxamide]
330 nM	73 nM	O=C(NCc1nnc(C2CC2)s1)c1cc(C(=O)c2c(F)cc(F)cc2F)c[nH]1 [Example 4, N-[(5-cyclopropyl-1,3,4-thiadiazol-2-yl)methyl]-4-(2,4,6-trifluorobenzoyl)-1H-pyrrole-2-carboxamide]
2850 nM	276 nM	O=C(NCc1nnc(-c2c(F)cccc2F)s1)c1cc(C(=O)c2c(F)cc(F)cc2F)c[nH]1 [Example 11, N-{[5-(2,6-difluorophenyl)-1,3,4-tbiadiazol-2-yl]methyl}-4-(2,4,6-trifluorobenzoyl)-1H-pyrrole-2-carboxamide]
4350 nM	42 nM	O=C(NCc1nnc(-c2ccccc2)s1)c1cc(C(=O)c2c(F)cc(F)cc2F)c[nH]1 [Example 7, N-[(5-phenyl-1,3,4-thiadiazol-2-yl)methyl]-4-(2,4,6-trifluorobenzoyl)-1H-pyrrole-2-carboxamide]
614 nM	98 nM	O=C(NCc1nnc(-c2ccco2)s1)c1cc(C(=O)c2c(F)cc(F)cc2F)c[nH]1 [Example 15, N-{[5-(2-furyl)-1,3,4-thiadiazol-2-yl]methyl}-4-(2,4,6-trifluorobenzoyl)-1H-pyrrole-2-carboxamide]
2870 nM	1510 nM	O=C(NCc1nnc(C2CCCC2)s1)c1cc(C(=O)c2c(F)cc(F)cc2F)c[nH]1 [Example 6, N-[(5-cyclopentyl-1,3,4-thiadiazol-2-yl)methyl]-4-(2,4,6-trifluorobenzoyl)-1H-pyrrole-2-carboxamide]
